“Also recorded” adds a separate entry of the source.
How the values were obtained:
[1] = test system: auxin-inducible glutathione S-transferase gene, GNT35; test: GNT35 gene expression in tobacco suspension cells treated with auxins (positive control); format: cell-based; details: 100 μM, hormone-free medium 2 days
Protocol: (§1) FIG. 12A: tobacco leaves were injected with water or 1 mM SA, INA or 4HBA. Samples were harvested at the times indicated and total RNA was extracted from treated tissue. Ten μg of RNA was loaded in each lane. FIG. 12B: quantification of EH-1 transcripts corresponding to the data from FIG. 12A. The method of quantification is described in FIG. 9. The experiments were done twice. FIG. 12C: cell cultures were subcultured for 2 days in hormone-free medium to deplete hormones. Water, 2,4-D or IAA were then added to the media at 100 μM. Cells were collected at the times indicated.
(§2) Cell suspension was treated with auxins as described by Xiang et al (1996). Cell cultures were grown in hormone-free medium for 2 days to deplete hormones in the medium. IAA (100 μM) and 2,4-D (100 μM) were added to the suspension. Cells were harvested at 0, 2, 6 and 12 h after addition of auxins. Water was added to the control.
(§3) Total RNA was isolated from tobacco tissue by phenol/chloroform as described in Example 1. Ten micrograms of total RNA was analyzed by electrophoresis in a 1.2% agarose gel containing formaldehyde and blotted to Nytran Plus membranes (Schleicher and Schuell). Blots were hybridized with [alpha-^32P]dCTP-labeled probes prepared by the random-priming method with a oligo labelling kit (Pharmacia). […] Following autoradiography, mRNA levels were quantitated using a Phosphorimager (Molecular Dynamics).

Arabidopsis sEH gene = details: in vivo; cited from earlier work
EH-1 gene [2] = test: EH-1 gene expression in tobacco suspension cells treated with auxins; format: cell-based; details: 100 μM, hormone-free medium 2 days, 0-12 h
Protocol: as §1, §2, §3

[3] = test system: seven groups of SIS genes (ACCO, ACCD, HMGR, APX, PR-3, SAR8.2, PAR-1); test: Northern analysis of SIS gene expression in tobacco leaves injected with chemicals; format: in vivo, Nicotiana tabacum cv. Xanthi nc; details: 1 mM injected into leaf
Protocol: (§4) One leaf on each plant was injected with water, 1 mM of SA, INA or 4-hydroxybenzoic acid (4HBA). At the times indicated, injected leaves from two similarly treated plants (˜5 g tissue) were harvested and total RNA was extracted. Ten μg of RNA was loaded in each lane. The experiment with all ten probes was done twice.
Tobacco (Nicotiana tabacum cv. Xanthi nc) plants and NahG-10 seeds, kindly provided by John Ryals at Novartis, Research Triangle, NC, were grown at 20° C. in a growth room with a 14-h day cycle. Two upper, fully expanded leaves of 6-8 week-old plants were infected with TMV strain U1 at a concentration of 1 μg/ml in 50 mM phosphate buffer (pH 7.2) containing carborundum. Control plants were treated with phosphate buffer and carborundum only. Inoculated plants were maintained in a 22° C. growth chamber until harvesting. In temperature shift experiments, plants were immediately put into a 32° C. growth chamber after infection with TMV. After a 48 h incubation period, the temperature was shifted from 32° C. to 22° C.
(§5) SA and its analog 4-hydroxybenzoic acid were purchased from Sigma. INA was provided by Uwe Conrath and Heinrich Kauss at Universitat Kaiserslautern, Germany. All chemicals were dissolved in water and adjusted a pH of 6.5 with NaOH. They were injected into plants at a concentration of 1 mM. Control plants were injected with distilled water.
(§6) Infected leaves were harvested and frozen in liquid nitrogen and stored at −80° C. until RNA extraction. Total RNA was extracted by phenol/chloroform essentially as described by Berry et al. (1985) with some modifications on the extraction buffer (50 mM Tris.HCl, pH8.0, 20 mM EDTA, 100 mM NaCl, and 2% SDS). For RNA blots, 10 μg of total RNA was loaded in each lane. RNA was separated on 1.2% agarose gels containing 18% formaldehyde and transferred to a Nytran Plus membrane (Schleicher and Schuell, Inc., Keene, N.H.). RNA was fixed to the membrane by cross-linking with UV light and then baked at 80° C. for 2 h. Prehybridization and hybridization were performed at 60° C. in 0.5M phosphate buffer (pH 7.2), containing 1% BSA, 7% SDS, and 1 mM EDTA (Church and Gilbert, 1984). The membranes were washed twice in 2×SSC at room temperature for 10 min each, twice in 2×SSC containing 0.5% SDS at 65° C. for 30 min, and twice in 0.1×SSC at room temperature for 30 min each. The probes were prepared from linearized DNA fragments and labeled with ^32p using the random-prime labeling method (Feinberg and Vogelstein, 1984). The PR-1a DNA clone was previously isolated in our lab and the tobacco PAL DNA clone was kindly provided by Michel Legrand and Bernard Fritig, Centre National de la Recherche Scientifique, Strasbourg, France.

potato suspension cells = details: cited from earlier work
fungal pathogen = details: cited from earlier work; for effectiveness at protecting / inducing resistance to fungal infection in barley: highly susceptible barley cultivar
EH-1 gene [4] = test: EH-1 gene expression in tobacco leaves injected with chemicals; format: in vivo, Nicotiana tabacum; details: 1 mM injected into leaf
Protocol: as §1
(§7) 2,4-D, […], and its analog 4HBA were purchased from Sigma. IAA was purchased from GIBCO BRL. INA was provided by Uwe Conrath at Universitat Kaiserslautern, Germany. SA, 4HBA and INA were dissolved in water and adjusted to […] pH of 6.5. They were injected into plants at a concentration of 1 mM with a needle-less syringe. Control plants were injected with distilled water. IAA and 2,4-D was dissolved in 0.2% ethanol.
as §3, with “Schuell).” for “Schuell). Blots were hybridized with [alpha-^32P]dCTP-labeled probes prepared by the random-priming method with a oligo labelling kit (Pharmacia).”

PAL genes = test: Northern analysis of PAL gene expression in tobacco leaves injected with chemicals; format: in vivo, Nicotiana tabacum cv. Xanthi nc; details: 1 mM injected into leaf
Protocol: as §4, §5
Infected leaves were harvested and frozen in liquid nitrogen and stored at −80° C. until RNA extraction. Total RNA was extracted by phenol/chloroform essentially as described by Berry et al. (1985) with some modifications on the extraction buffer (50 mM Tris.HCl, pH8.0, 20 mM EDTA, 100 mM NaCl, and 2% SDS). For RNA blots, 10 μg of total RNA was loaded in each lane. RNA was separated on 1.2% agarose gels containing 18% formaldehyde and transferred to a Nytran Plus membrane (Schleicher and Schuell, Inc., Keene, N.H.). RNA was fixed to the membrane by cross-linking with UV light and then baked at 80° C. for 2 h. […]

PR-1 genes = test: Northern analysis of PR-1 gene expression in tobacco leaves injected with chemicals; format: in vivo, Nicotiana tabacum cv. Xanthi nc; details: for induction of PR-1 genes (in words): exogenous treatment of tobacco
Protocol: as §4, §5, §6, §7
as §3, with “Schuell).” for “Schuell). Blots were hybridized with [alpha-^32P]dCTP-labeled probes prepared by the random-priming method with a oligo labelling kit (Pharmacia).”

In the case of `O=C(O)COc1ccc(Cl)cc1Cl` [2,4-D, 2,4-dichlorophenoxy acetic acid], the “induction of GNT35 expression (in words)” value [1] is given as “rapidly induced”, the “induction of Arabidopsis sEH gene” value (Arabidopsis sEH gene) is given as “induced by auxins” and the “induction of EH-1 expression (in words)” value (EH-1 gene [2]) is given as “Little or no induction”.

In the case of `O=C(O)c1ccc(O)cc1` [4HBA, 4-hydroxybenzoic acid], the “activation of the seven groups of SIS genes (in words)” value (“activation” below) [3] was “failed to activate these genes”.

In the case of `O=C(O)CCCCCCCC(O)C(O)CCCCCCCCO` (stereo not shown) [9,10,18-trihydroxystearic acid], the alkalinization of media (potato suspension cells) is given as “to a lesser extent than HESA”, the “effectiveness at protecting / inducing resistance to fungal infection in barley” value (fungal pathogen) is given as “nearly as effective” and the “toxicity relative to HESA” value (fungal pathogen; in vivo) is given as “less toxic than HESA”.

In the case of `O=C(O)CCCCCCCC1OC1CCCCCCCCO` (stereo not drawn) [HESA, cis-9,10-epoxy-18-hydroxystearic acid], the alkalinization of media (potato suspension cells) is listed as “caused the rapid alkalinization” and the “effectiveness at protecting / inducing resistance to fungal infection in barley” value (fungal pathogen) is listed as “most effective”.

In the case of `O=C(O)Cc1c[nH]c2ccccc12` [IAA, indole-3-acetic acid], the “induction of GNT35 expression (in words)” value [1] is listed as “rapidly induced”, the “induction of Arabidopsis sEH gene” value (Arabidopsis sEH gene) is listed as “induced by auxins” and the “induction of EH-1 expression (in words)” value (EH-1 gene [2]) is listed as “Little or no induction”.

With `O=C(O)c1cc(Cl)nc(Cl)c1` [INA, 2,6-dichloroisonicotinic acid] the “EH-1 transcript accumulation (in words)” value (EH-1 gene [4]) was “induced a transient accumulation of EH-1 transcripts; also recorded: accumulate rapidly and transiently”, the “induction of PAL gene expression (in words)” value (PAL genes) was “neither SA nor INA can induce PAL gene expression” and the “induction of PR-1 genes (in words)” value (PR-1 genes) was “slow and sustained”. For the same compound, the “activation” value [3] was “induced by INA, generally in a transient manner; also recorded: rapid and transient activation of six of the seven groups”.

For `O=C(O)c1ccccc1O` [SA, salicylic acid], the “induction of PAL gene expression (in words)” value (PAL genes) was “little, if any, induction of PAL; also recorded: neither SA nor INA can induce PAL gene expression”, the “time post treatment at which PR-1 mRNAs were first detected” value (PR-1 genes; 1 mM injected into leaf, Example 1) was 12 h and the “time post treatment at which PR-1 transcripts were first detected” value (PR-1 genes; 1 mM injected into leaf, Example 2) was 12 h. For the same compound, the “induction of PR-1 genes (in words)” value (PR-1 genes) was “slow and sustained”, the “activation” value [3] was “induced their expression transiently; also recorded: rapid and transient activation of six of the seven groups” and the “time post treatment by which SIS mRNA levels had declined” value [3] was at most 24 h. For the same compound, the “time post treatment by which mRNA levels for all SIS genes had peaked” value [3] was at most 12 h, the “time after injection by which six of the seven groups of SIS genes were induced” value ([3]; Northern blot) was 4 to 6 h and the “time after treatment at which increased expression of PAR-1 was detected” value ([3]; this experiment) was 12 h.

— US6495737B1, “Methods and compositions for improving salicylic acid-independent systemic acquired disease resistance in plants” (Rutgers, The State University of New Jersey, priority 1996, dated 2002)
